Experimental data: ChEMBL document CHEMBL6127065, “Design and Synthesis of c-Met and HDAC Dual Inhibitors for the Treatment of Breast Cancer” (ACS Med Chem Lett, 2024)

Legend:
[1] = tested on: MDA-MB-453; assay: Antiproliferative activity against human MDA-MB-453 cells assessed as reduction in cell growth incubated for 72 hrs by MTT assay; settings: MDA-MB-453, 72 h
[2] = tested on: MDA-MB-231; assay: Antiproliferative activity against human MDA-MB-231 cells assessed as reduction in cell growth incubated for 72 hrs by MTT assay; settings: MDA-MB-231, 72 h
[3] = tested on: MDA-MB-468; assay: Antiproliferative activity against human MDA-MB-468 cells assessed as reduction in cell growth incubated for 72 hrs by MTT assay; settings: MDA-MB-468, 72 h
[4] = biological target: Hepatocyte growth factor receptor (Homo sapiens, UniProt P08581); assay: Inhibition of c-Met (unknown origin) using Poly(Glu:Tyr)(4:1) and ATP as substrate incubated for 45 mins by Kinase-Glo Max reagent based luminescence analysis
Hepatocyte growth factor receptor, sequence (P08581 whole entry): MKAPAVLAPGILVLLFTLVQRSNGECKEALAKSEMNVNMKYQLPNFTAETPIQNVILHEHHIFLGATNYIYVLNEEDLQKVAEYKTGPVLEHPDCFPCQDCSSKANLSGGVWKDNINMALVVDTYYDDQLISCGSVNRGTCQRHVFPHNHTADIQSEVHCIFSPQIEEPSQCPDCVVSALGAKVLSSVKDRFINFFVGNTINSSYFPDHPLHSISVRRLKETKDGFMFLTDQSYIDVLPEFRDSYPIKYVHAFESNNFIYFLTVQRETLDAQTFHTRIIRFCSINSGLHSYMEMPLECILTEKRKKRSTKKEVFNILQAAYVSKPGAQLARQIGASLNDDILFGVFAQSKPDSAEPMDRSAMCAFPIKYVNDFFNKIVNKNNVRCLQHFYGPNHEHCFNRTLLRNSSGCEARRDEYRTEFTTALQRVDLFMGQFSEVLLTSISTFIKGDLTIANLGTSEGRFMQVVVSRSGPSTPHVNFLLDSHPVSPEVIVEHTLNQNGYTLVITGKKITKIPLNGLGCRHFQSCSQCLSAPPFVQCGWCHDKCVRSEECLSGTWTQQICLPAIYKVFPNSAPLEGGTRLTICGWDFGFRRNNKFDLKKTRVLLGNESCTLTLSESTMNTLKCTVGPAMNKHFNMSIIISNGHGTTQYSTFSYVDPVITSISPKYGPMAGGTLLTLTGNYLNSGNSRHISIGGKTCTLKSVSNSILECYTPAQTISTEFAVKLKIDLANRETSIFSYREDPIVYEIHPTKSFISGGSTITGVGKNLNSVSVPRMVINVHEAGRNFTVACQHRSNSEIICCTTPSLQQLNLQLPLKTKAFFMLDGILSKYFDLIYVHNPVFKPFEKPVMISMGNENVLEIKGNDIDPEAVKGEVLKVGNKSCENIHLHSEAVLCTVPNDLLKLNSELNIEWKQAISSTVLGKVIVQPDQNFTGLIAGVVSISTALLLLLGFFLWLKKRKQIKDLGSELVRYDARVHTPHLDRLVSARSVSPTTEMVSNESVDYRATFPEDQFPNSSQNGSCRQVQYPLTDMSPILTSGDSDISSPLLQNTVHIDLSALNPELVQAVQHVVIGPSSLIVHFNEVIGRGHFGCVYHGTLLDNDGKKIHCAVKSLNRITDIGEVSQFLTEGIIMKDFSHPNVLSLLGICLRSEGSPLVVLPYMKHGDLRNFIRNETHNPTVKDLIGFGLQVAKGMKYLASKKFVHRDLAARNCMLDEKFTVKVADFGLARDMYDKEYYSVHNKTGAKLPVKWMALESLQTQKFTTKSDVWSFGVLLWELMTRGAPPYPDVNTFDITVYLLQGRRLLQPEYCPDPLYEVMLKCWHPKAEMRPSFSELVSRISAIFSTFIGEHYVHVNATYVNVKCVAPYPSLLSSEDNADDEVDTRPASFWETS

[5] = Cytotoxicity against human MCF-10A cells assessed as reduction in cell viability incubated for 72 hrs by MTT assay; type: toxicity, cell-based
[6] = tested on: MDA-MB-231; assay: Induction of apoptosis in human MDA-MB-231 cells assessed as early apoptotic cells at 10 uM incubated for 48 hrs by AnnexinV-FITC/PI staining based flow cytometry (reference value: 1.6 to 2.41%); type: functional
[7] = tested on: MDA-MB-231; assay: Induction of cell cycle arrest in human MDA-MB-231 cells assessed as accumulation of cells at G0/G1 phase at 2.5 uM incubated for 48 hrs by PI staining based flow cytometry (reference value: 55.36 to 55.82%); type: functional
[8] = tested on: MDA-MB-231; assay: Induction of apoptosis in human MDA-MB-231 cells assessed as early apoptotic cells at […] uM incubated for 48 hrs by AnnexinV-FITC/PI staining based flow cytometry (reference value: 1.6 to 2.41%); type: functional; settings: 1.25 µM
[9] = tested on: MDA-MB-231; assay: Induction of cell cycle arrest in human MDA-MB-231 cells assessed as accumulation of cells at G0/G1 phase at 25 uM incubated for 48 hrs by PI staining based flow cytometry (reference value: 55.36 to 55.82%); type: functional
[10] = tested on: MDA-MB-231; assay: Induction of apoptosis in human MDA-MB-231 cells assessed as necrotic cells at 2.5 uM incubated for 48 hrs by AnnexinV-FITC/PI staining based flow cytometry (reference value: 1.79 to 2.53%); type: functional
[11] = tested on: MDA-MB-231; assay: Induction of cell cycle arrest in human MDA-MB-231 cells assessed as accumulation of cells at S phase at 10 uM incubated for 48 hrs by PI staining based flow cytometry (reference value: 12.56 to 14.76%); type: functional
[12] = tested on: MDA-MB-231; assay: Induction of cell cycle arrest in human MDA-MB-231 cells assessed as accumulation of cells at S phase at 1 uM incubated for 48 hrs by PI staining based flow cytometry (reference value: 12.56 to 14.76%); type: functional
[13] = tested on: MDA-MB-231; assay: Induction of cell cycle arrest in human MDA-MB-231 cells assessed as accumulation of cells at G2/M phase at 10 uM incubated for 48 hrs by PI staining based flow cytometry (reference value: 29.42 to 32.08%); type: functional
[14] = tested on: MDA-MB-231; assay: Induction of apoptosis in human MDA-MB-231 cells assessed as necrotic cells at […] uM incubated for 48 hrs by AnnexinV-FITC/PI staining based flow cytometry (reference value: 1.79 to 2.53%); type: functional; settings: 1.25 µM
[15] = tested on: MDA-MB-231; assay: Induction of cell cycle arrest in human MDA-MB-231 cells assessed as accumulation of cells at S phase at 2.5 uM incubated for 48 hrs by PI staining based flow cytometry (reference value: 12.56 to 14.76%); type: functional
[16] = tested on: MDA-MB-231; assay: Induction of apoptosis in human MDA-MB-231 cells assessed as viable cells at […] uM incubated for 48 hrs by AnnexinV-FITC/PI staining based flow cytometry (reference value: 91.22 to 92.84%); type: functional; settings: read-out: Activity
[17] = tested on: MDA-MB-231; assay: Induction of apoptosis in human MDA-MB-231 cells assessed as late apoptotic cells at […] uM incubated for 48 hrs by AnnexinV-FITC/PI staining based flow cytometry (reference value: 3.77 to 3.84%); type: functional; settings: 1.25 µM
[18] = tested on: MDA-MB-231; assay: Induction of apoptosis in human MDA-MB-231 cells assessed as viable cells at 10 uM incubated for 48 hrs by AnnexinV-FITC/PI staining based flow cytometry (reference value: 91.22 to 92.84%); type: functional; settings: read-out: Activity
[19] = tested on: MDA-MB-231; assay: Induction of apoptosis in human MDA-MB-231 cells assessed as viable cells at 2.5 uM incubated for 48 hrs by AnnexinV-FITC/PI staining based flow cytometry (reference value: 91.22 to 92.84%); type: functional; settings: read-out: Activity
[20] = tested on: MDA-MB-231; assay: Induction of cell cycle arrest in human MDA-MB-231 cells assessed as accumulation of cells at G0/G1 phase at 10 uM incubated for 48 hrs by PI staining based flow cytometry (reference value: 55.36 to 55.82%); type: functional
[21] = tested on: MDA-MB-231; assay: Induction of apoptosis in human MDA-MB-231 cells assessed as early apoptotic cells at 2.5 uM incubated for 48 hrs by AnnexinV-FITC/PI staining based flow cytometry (reference value: 1.6 to 2.41%); type: functional
[22] = tested on: MDA-MB-231; assay: Induction of apoptosis in human MDA-MB-231 cells assessed as late apoptotic cells at 5 uM incubated for 48 hrs by AnnexinV-FITC/PI staining based flow cytometry (reference value: 3.77 to 3.84%); type: functional
[23] = tested on: MDA-MB-231; assay: Induction of cell cycle arrest in human MDA-MB-231 cells assessed as accumulation of cells at G0/G1 phase at 1 uM incubated for 48 hrs by PI staining based flow cytometry (reference value: 55.36 to 55.82%); type: functional
[24] = tested on: MDA-MB-231; assay: Induction of apoptosis in human MDA-MB-231 cells assessed as late apoptotic cells at 2.5 uM incubated for 48 hrs by AnnexinV-FITC/PI staining based flow cytometry (reference value: 3.77 to 3.84%); type: functional
[25] = tested on: MDA-MB-231; assay: Induction of apoptosis in human MDA-MB-231 cells assessed as early apoptotic cells at 5 uM incubated for 48 hrs by AnnexinV-FITC/PI staining based flow cytometry (reference value: 1.6 to 2.41%); type: functional
[26] = tested on: MDA-MB-231; assay: Induction of apoptosis in human MDA-MB-231 cells assessed as viable cells at 5 uM incubated for 48 hrs by AnnexinV-FITC/PI staining based flow cytometry (reference value: 91.22 to 92.84%); type: functional; settings: read-out: Activity
[27] = tested on: MDA-MB-231; assay: Induction of cell cycle arrest in human MDA-MB-231 cells assessed as accumulation of cells at G2/M phase at 2.5 uM incubated for 48 hrs by PI staining based flow cytometry (reference value: 29.42 to 32.08%); type: functional
[28] = tested on: MDA-MB-231; assay: Induction of apoptosis in human MDA-MB-231 cells assessed as late apoptotic cells at 10 uM incubated for 48 hrs by AnnexinV-FITC/PI staining based flow cytometry (reference value: 3.77 to 3.84%); type: functional
[29] = tested on: MDA-MB-231; assay: Inhibition of colony formation in human MDA-MB-231 cells at 0.5 to 10 uM incubated for 7 days by crystal violet staining based analysis; type: functional, cell-based; settings: dose 0.5-10 µM, time 7.0 day
[30] = tested on: MDA-MB-231; assay: Induction of apoptosis in human MDA-MB-231 cells assessed as necrotic cells at 5 uM incubated for 48 hrs by AnnexinV-FITC/PI staining based flow cytometry (reference value: 1.79 to 2.53%); type: functional
[31] = tested on: MDA-MB-231; assay: Induction of cell cycle arrest in human MDA-MB-231 cells assessed as accumulation of cells at G2/M phase at 1 uM incubated for 48 hrs by PI staining based flow cytometry (reference value: 29.42 to 32.08%); type: functional
[32] = tested on: MDA-MB-231; assay: Induction of apoptosis in human MDA-MB-231 cells assessed as necrotic cells at 10 uM incubated for 48 hrs by AnnexinV-FITC/PI staining based flow cytometry (reference value: 1.79 to 2.53%); type: functional
[33] = tested on: MDA-MB-231; assay: Induction of cell cycle arrest in human MDA-MB-231 cells assessed as accumulation of cells at G2/M phase at 25 uM incubated for 48 hrs by PI staining based flow cytometry (reference value: 29.42 to 32.08%); type: functional
[34] = tested on: MDA-MB-231; assay: Induction of cell cycle arrest in human MDA-MB-231 cells assessed as accumulation of cells at S phase at 25 uM incubated for 48 hrs by PI staining based flow cytometry (reference value: 12.56 to 14.76%); type: functional

In the case of `CC(c1ccc2ncccc2c1)n1nnc2ncc(N3CCN(Cc4ccc(CC(=O)Nc5ccc(F)cc5N)cc4)CC3)nc21` (stereo not given), the IC50 [1] is reported as 5.91 µM, the IC50 [2] is reported as 6.46 µM and the IC50 [3] is reported as 3.92 µM.
Compound `CC(c1ccc2ncccc2c1)n1nnc2ncc(N3CCN(CCC(=O)Nc4ccc(F)cc4N)CC3)nc21` (stereo not given) has an IC50 [1] of 27.6 µM, an IC50 [2] of 22.7 µM and an IC50 [3] of 9.15 µM.
Compound `C[C@@H](Oc1cc(-c2cnn(C3CCNCC3)c2)cnc1N)c1c(Cl)ccc(F)c1Cl` [CRIZOTINIB] has an IC50 [1] of 4.69 µM, an IC50 [2] of 4.9 µM and an IC50 [3] of 2.62 µM.
In the case of `CC(c1ccc2ncccc2c1)n1nnc2ncc(N3CCN(Cc4ccc(C(=O)Nc5ccccc5N)cc4)CC3)nc21` (stereo not given), the IC50 [1] is reported as 16 µM, the IC50 [2] is reported as 15.3 µM and the IC50 [3] is reported as 12.8 µM.
For `C[C@@H](c1ccc2nccn2c1)n1nnc2ncc(-c3cnn(C)c3)nc21` [SAVOLITINIB], the IC50 [4] was 0.00142 µM.
For `CC(c1ccc2ncccc2c1)n1nnc2ncc(N3CCN(CC(=O)Nc4ccccc4N)CC3)nc21` (stereo not given), the IC50 [1] was 27.2 µM, the IC50 [2] was 26.6 µM and the IC50 [3] was 14.2 µM.
With `CC(c1ccc2ncccc2c1)n1nnc2ncc(N3CCN(Cc4ccc(/C=C/C(=O)Nc5ccc(F)cc5N)cc4)CC3)nc21` (stereo not given) the IC50 at 72 h [5] was greater than 25 µM, the Activity [6] was 3.12% and the Activity [7] was 71%. It also gave an Activity [8] of 2%, an Activity [9] of 74.44% and an Activity [10] of 2.21%. The Activity [11] was 12.11%, the Activity [12] was 10.25% and the Activity [13] was 15.22%. For the same compound, the Activity [14] was 4.05%, the Activity [15] was 9.97% and the viability at 1.25 µM [16] was 88.8%. It also gave an Activity [17] of 5.18%, a viability at 10 µM [18] of 85.2% and a viability at 2.5 µM [19] of 87.4%. The IC50 [1] was 3.88 µM, the Activity [20] was 72.67% and the Activity [21] was 3.22%. It also gave an IC50 [2] of 1.63 µM, an Activity [22] of 8.25% and an Activity [23] of 68.63%. The IC50 [3] was 1.25 µM, the Activity [24] was 7.16% and the Activity [25] was 2.65%. For the same compound, the viability at 5 µM [26] was 87.1%, the Activity [27] was 18.03% and the Activity [28] was 9.5%. The inhibition [29] was “Dose-Dependent Effect”, the Activity [30] was 1.98% and the Activity [31] was 21.12%. For the same compound, the Activity [32] was 2.15%, the Activity [33] was 13.48% and the Activity [34] was 12.08%. The IC50 [4] was 0.0549 µM.
